Where two headings read alike, the source gives them in different places.
How the values were obtained:
[1] = tested on: panel of cancer cells (T24, DU-145, MCF-7); test: MTT reduction assay, panel of cancer cells (means, ranges, selectivity index); type: cell-based, human; details: for IC50: Homo sapiens
Method: (§1) As positive control, two well-known anticancer drugs, namely TAM and 5-FU, were also tested on these cell lines. […] Regarding 5-FU, it is a broad-spectrum chemotherapeutic drug used to treat a variety of malignancies. Particularly, it has a long history of use against bladder tumors.
Such a selective index was calculated as the ratio between IC50 values of healthy cells/IC50 values in cancer cells.
(§2) Cells were seeded into 96-well plates at a density of 10,000 cells/well for 24 h and then incubated for 48 h with or without the quinone derivatives. […] The IC50 values were determined using the GraphPad Prism software (San Diego, CA, USA). Further incubation procedures and optical density reading of colored solutions were performed according to Benites et al..

Hsp90 [2] = test: Immunoblot of Hsp90 protein integrity in TLT cells; type: cell-based, murine; details: 5 µM plus 1 mM ascorbate, 4 h
Method: Cancer cells were incubated for 4 h with 5 µM menadione (K3) or 15 either in the absence or in the presence of 1 mM ascorbate (Asc). Ctl represents control untreated cells. * p < 0.05 as compared to control conditions. Cancer cells were incubated for 4 h in the absence and in the presence of compounds. Afterward, cells were washed twice with ice-cold PBS and then resuspended in RIPA lysis buffer supplemented with 1% protease inhibitor cocktail (Sigma–Aldrich, St. Louis, MO, USA) and 3% phosphatase inhibitor cocktail (Calbiochem, Darmstadt, Germany). Treatment of samples and electrophoresis conditions were conducted as previously reported. Mouse monoclonal primary antibodies against hsp90α/β C-terminus (F8), and against β-actin (clone AC-15), were purchased from Santa Cruz Biotechnology (Santa Cruz, CA, USA) and from Abcam (Cambridge, UK), respectively. Rabbit polyclonal antibodies against PARP were purchased from BD Biosciences (San Diego, CA, USA). Goat anti-rabbit antibody and rabbit anti-mouse polyclonal antibody were purchased respectively from Chemicon International (Temecula, CA, USA) and DakoCytomation (Glostrup, Denmark).

Hsp90 [3] = test: Immunoblot of Hsp90 protein integrity in T24 cells; type: cell-based, human; details: 5 µM quinone plus 1 mM ascorbate, 4 h
Method: Nevertheless, when incubation was done in the presence of 1 mM ascorbate (vitamin C) plus quinones (including menadione), a new peptide fragment of about 70 kD was detected by the antibody against Hsp90.
Figure 1 Effects of selected quinones of Hsp90 (A) and poly(ADPribose)polymerase (PARP) (B) protein integrity in T24 cells. Cancer cells were incubated for 4 h with 5 µM menadione (K3), 15, 16, 19, or 20 either in the absence or in the presence of 1 mM ascorbate (Asc). Ctl represents control untreated cells. * p < 0.05 as compared to control conditions.
Cancer cells were incubated for 4 h in the absence and in the presence of compounds. Afterward, cells were washed twice with ice-cold PBS and then resuspended in RIPA lysis buffer supplemented with 1% protease inhibitor cocktail (Sigma–Aldrich, St. Louis, MO, USA) and 3% phosphatase inhibitor cocktail (Calbiochem, Darmstadt, Germany). Treatment of samples and electrophoresis conditions were conducted as previously reported. Mouse monoclonal primary antibodies against hsp90α/β C-terminus (F8), and against β-actin (clone AC-15), were purchased from Santa Cruz Biotechnology (Santa Cruz, CA, USA) and from Abcam (Cambridge, UK), respectively. Rabbit polyclonal antibodies against PARP were purchased from BD Biosciences (San Diego, CA, USA). […]

[4] = tested on: poly(ADPribose)polymerase (PARP); test: Immunoblot of PARP protein integrity in T24 cells; type: cell-based, human; details: 5 µM, 4 h, regardless of the presence of ascorbate (1 mM)
Method: Figure 1 Effects of selected quinones of Hsp90 (A) and poly(ADPribose)polymerase (PARP) (B) protein integrity in T24 cells. […] Ctl represents control untreated cells. * p < 0.05 as compared to control conditions. […] This was the case regardless of the presence of ascorbate (1 mM). The obtained results make a potential role of apoptosis unlikely to be the underlying mechanism of cell impairment induced by quinones, including menadione. Indeed, PARP is a substrate of caspase-3, therefore, when an apoptosis process is triggered, it is expected that PARP protein will be cleaved yielding a second protein band also recognized by the anti-PARP antibody. Cancer cells were incubated for 4 h in the absence and in the presence of compounds. Afterward, cells were washed twice with ice-cold PBS and then resuspended in RIPA lysis buffer supplemented with 1% protease inhibitor cocktail (Sigma–Aldrich, St. Louis, MO, USA) and 3% phosphatase inhibitor cocktail (Calbiochem, Darmstadt, Germany). Treatment of samples and electrophoresis conditions were conducted as previously reported. Mouse monoclonal primary antibodies against hsp90α/β C-terminus (F8), and against β-actin (clone AC-15), were purchased from Santa Cruz Biotechnology (Santa Cruz, CA, USA) and from Abcam (Cambridge, UK), respectively. Rabbit polyclonal antibodies against PARP were purchased from BD Biosciences (San Diego, CA, USA). […]

DU-145 (prostate) cells = tested on: DU-145 (prostate) cells; set-up: method as in doi:10.1016/j.tetlet.2015.07.034; details: read-out: IC50 ± SEM DU-145, MTT, data from Valderrama et al. ref 16; cited from earlier work
[5] = tested on: non-tumor fibroblasts AG 1523; test: MTT reduction assay, non-tumor fibroblasts; type: cell-based; details: Homo sapiens, AG1523, 48 h incubation, read-out: IC50 ± SEM AG 1523
Method: as §1
Cell culture conditions were the same as reported elsewhere. Briefly, cell lines were kept in DMEM containing 10% fetal calf serum. In addition, 100 U/mL of penicillin and 100 µg/mL streptomycin from Gibco (Grand Island, NY, USA) were further added. Cell cultures were kept at 37 °C under an atmosphere of 95% air/5% CO2 and 100% humidity. Sodium L-ascorbate, menadione (vitamin K3), TAM, and 5-FU were purchased from Sigma (St. Louis, MO, USA).
The cytotoxicity of the quinones was assessed by following the reduction of MTT (3-(4,5-dimethylthiazol-2-yl)-2,5-diphenyltetrazolium bromide) to formazan blue and the capability of cancer cells to proliferate, namely a clonogenic assay.
as §2

MCF-7 (breast) cells = tested on: MCF-7 (breast) cells; set-up: method as in doi:10.1016/j.tetlet.2015.07.034; details: MTT, data from Valderrama et al. ref 16, read-out: IC50 ± SEM MCF-7; cited from earlier work
T24 (bladder) cells = tested on: T24 (bladder) cells; set-up: method as in doi:10.1016/j.tetlet.2015.07.034; details: MTT, data from Valderrama et al. ref 16, read-out: IC50 ± SEM T24; cited from earlier work

Which IC50 ([1]; read-out: IC50 values on the panel of cancer cells (range over cell lines)) does the source give for `Cc1ccc2c(c1)SC1=NC3=C(C(=O)c4ccccc4C3=O)C(C)(O)N12` (stereo not shown) [Compound 15] here?
The IC50 was 0.11 to 1.77 µM.

What about the IC50 ([1]; read-out: mean IC50 value calculated from the individual IC50 values of the three cancer cell lines) of the same compound?
The IC50 was 1.1 to 1.61 µM.

What about the “MSI: mean selective index” value ([1]; IC50 values of fibroblasts (AG 1523)/IC50 values of tumor cells (T24, DU-145, MCF-7)) of the same compound?
The value was 29.4.

What about the Hsp90 protein cleavage (Hsp90 [2]) of the same compound?
Its Hsp90 protein cleavage is “oxidative cleavage of Hsp90”.

And the Hsp90 protein cleavage (Hsp90 [3])?
Its Hsp90 protein cleavage is “induced an oxidative cleavage of Hsp90”.

What about the PARP cleavage [4] of the same compound?
Its PARP cleavage is “no effect on PARP protein integrity”.

What about the IC50 (DU-145 (prostate) cells) of the same compound?
Its IC50 is 0.11 ± 0.03 µM.

And the IC50 [5]?
Its IC50 is 32.3 ± 3.31 µM.

And the IC50 (MCF-7 (breast) cells)?
Its IC50 is 2.98 ± 0.52 µM.

And the IC50 (T24 (bladder) cells)?
Its IC50 is 0.22 ± 0.06 µM.
